Experimental data reported in paper PMC12874371, “Screening of FDA-Approved Small Molecules to Discover Inhibitors of the Pseudomonas aeruginosa Quorum-Sensing Enzyme, PqsE” (Biochemistry, 2026).

Assays:
intracellular PqsE = molecular target: T1, intracellular PqsE (Pseudomonas aeruginosa, UniProt P20581); format: cell-based; conditions: 8 h growth
T1 construct: endogenous in cells; host or cells: P. aeruginosa UCBPP-PA14 wild type

PqsE(WT) = molecular target: T2, PqsE(WT) (Pseudomonas aeruginosa, UniProt P20581); assay: biochemical
T2 construct: 6xHis (N); made in house; host or cells: E. coli BL21 (DE3), pET28b-6xHis-pqsE(WT) (strain SM776)

azeB expression = assay: azeB-luxCDABE reporter (dual pyocyanin/azeB-lux assay); conditions: 50 and 100 μM, azeB-lux reporter strains
PqsE(S285W) = molecular target: T3, PqsE(S285W) (Pseudomonas aeruginosa, UniProt P20581, S285W); assay: biochemical
T3 construct: 6xHis (N); made in house; host or cells: E. coli BL21 (DE3), pET28b-6xHis-pqsE(S285W) (strain IT55)

Structure (SMILES) | Decrease in acetophenone (intracellular PqsE; 10 μM, wildtype P. aeruginosa) | Effect on acetophenone levels at 100 μM (intracellular PqsE; 100 μM, compared to pqsE(D73A) strain) | IC50 (PqsE(WT)) | Effect on azeB expression (luminescence/OD600) (azeB expression) | Effect on acetophenone levels (intracellular PqsE; 10 and 100 μM) | IC50 (PqsE(S285W))
O=C(CCCCCCC(=O)Nc1ccccc1)NO [Vorinostat] | 30% | full inhibition of PqsE catalytic activity | 1.2 µM | not accompanied by increases in azeB expression | – | –
O=c1n(CCCN2CCN(c3cccc(Cl)c3)CC2)nc2ccccn12 [Trazodone] | – | – | – | not accompanied by increases in azeB expression | – | –
CN1CCc2cccc3c2[C@H]1Cc1ccc(O)c(O)c1-3 [Apomorphine] | – | – | 18 µM | not accompanied by increases in azeB expression | no significant effect on acetophenone levels | 22 µM
